Data from US20210292347A1, “DIHETEROCYCLIC TRIAZINONE NUCLEOSIDE ANALOGS AND THEIR USE FOR MEDICATION” (priority 2020, published 2021).
Read-outs that look alike come from different tables or passages of the source.

Tested on: mice sarcoma S180
Experiment: Growth inhibition of S180 sarcoma in mice
Type: in vivo, Kunming healthy mice
Details: for in-vivo anti-tumor efficacy, statistical significance (in words): S180 sarcoma in mice, doses and routes of Table 3
[1] = Mus musculus, S-180, mice, ip, read-out: Inhibition rate (%) S180 sarcoma
[2] = Mus musculus, S-180, mice, ip, 100 mg/kg, read-out: Inhibition rate (%) S180 sarcoma
[3] = Mus musculus, S-180, mice, ip, 400 mg/kg, read-out: Inhibition rate (%) S180 sarcoma
[4] = Mus musculus, S-180, mice, iv, read-out: Inhibition rate (%) S180 sarcoma

## CC(=O)O[C@H]1C(=O)[C@@]2(C)[C@H]([C@H](OC(=O)c3ccccc3)[C@]3(O)C[C@H](OC(=O)[C@H](O)[C@@H](NC(=O)c4ccccc4)c4ccccc4)C(C)=C1C3(C)C)[C@]1(OC(C)=O)CO[C@@H]1C[C@@H]2O [Taxol, Paclitaxel, reference compound]
[1]
  inhibition in vivo at 20 mg/kg: < 40%

## NC(=O)n1nc(N)c2nnn(C3OC(CO)C(O)C3O)c(=O)c21 (stereo not drawn) [Example 56, 7-amino-3-(3,4-dihydroxy-5-(hydroxymethyl)tetrahydrofuran-2-yl)-4-oxo-3H-pyrazolo[4,3-d][1,2,3]triazine-5(4H)-carboxamide]
[2]
  inhibition in vivo at 100 mg/kg: < 40%
  in-vivo anti-tumor efficacy, statistical significance (in words): statistically significant

## CCCc1nn(C(=N)N)c2c(=O)n(C3CCC(CO)O3)nnc12 (stereo not drawn) [Example 85, 3-(5-(hydroxymethyl)tetrahydrofuran-2-yl)-4-oxo-7-propyl-3H-pyrazolo[4,3-d][1,2,3]triazine-5(4H)-carboximidamide]
[3]
  inhibition in vivo at 400 mg/kg: < 20%

## O=c1c2c(nnn1C1OC(CO)C(O)C1O)nnn2CO (stereo not drawn) [Example 148, 6-(3,4-dihydroxy-5-(hydroxymethyl)tetrahydrofuran-2-yl)-1-(hydroxymethyl)-1H-[1,2,3]triazolo[4,5-d][1,2,3]triazin-7(6H)-one]
[1]
  inhibition in vivo at 200 mg/kg: < 20%

## CN(C)CCC(=O)Nc1nn(O)c2c(=O)n(C3OC(CO)C(O)C3O)nnc12 (stereo not drawn) [Example 16, N-(3-(3,4-dihydroxy-5-(hydroxymethyl)tetrahydrofuran-2-yl)-5-hydroxy-4-oxo-4,5-dihydro-3H-pyrazolo[4,3-d][1,2,3]triazin-7-yl)-3-(dimethylamino) propanamide]
mice, ip, 100 mg/kg
  Inhibition rate (%) S180 sarcoma: + (+ represent of Inhibition rate % <20)

## CN(C)CCC(=O)Nc1nn(CC(N)=O)c2c(=O)n(COC(CO)CO)nnc12 [Example 129, N-(5-(2-amino-2-oxoethyl)-3-(((1,3-dihydroxypropan-2-yl)oxy)methyl)-4-oxo-4,5-dihydro-3H-pyrazolo[4,3-d][1,2,3]triazin-7-yl)-3-(dimethylamino) propanamide]
[2]
  inhibition in vivo at 100 mg/kg: < 20%

## NC(=O)n1nc(N2CCCCC2)c2nnn(C3OC(CO)C(O)C3O)c(=O)c21 (stereo not drawn) [Example 59, 3-(3,4-dihydroxy-5-(hydroxymethyl)tetrahydrofuran-2-yl)-4-oxo-7-(piperidin-1-yl)-3H-pyrazolo[4,3-d][1,2,3]triazine-5(4H)-carboxamide]
[4]
  inhibition in vivo at 50 mg/kg: < 20%

## CCCc1nn(C2CC2)c2c(=O)n(C3OC(CO)C(O)C3O)nnc12 (stereo not drawn) [Example 40, 5-cyclopropyl-3-(3,4-dihydroxy-5-(hydroxymethyl)tetrahydrofuran-2-yl)-7-propyl-3H-pyrazolo[4,3-d][1,2,3]triazin-4(5H)-one]
[4]
  inhibition in vivo at 50 mg/kg: < 20%

## CCCc1nn(O)c2c(=O)n(C3CSC(CO)O3)nnc12 (stereo not drawn) [Example 88, 5-hydroxy-3-(2-(hydroxymethyl)-1,3-oxathiolan-5-yl)-7-propyl-3H-pyrazolo[4,3-d][1,2,3]triazin-4(5H)-one]
[3]
  inhibition in vivo at 400 mg/kg: < 40%
  in-vivo anti-tumor efficacy, statistical significance (in words): statistically significant

## N=C(N)n1nc([N+](=O)[O-])c2nnn(C3OC(CO)C(O)C3O)c(=O)c21 (stereo not drawn) [Example 72, 3-(3,4-dihydroxy-5-(hydroxymethyl)tetrahydrofuran-2-yl)-7-nitro-4-oxo-3H-pyrazolo[4,3-d][1,2,3]triazine-5(4H)-carboximidamide]
[4]
  inhibition in vivo at 25 mg/kg: < 40%
  in-vivo anti-tumor efficacy, statistical significance (in words): statistically significant

## N#Cc1nn(O)c2c(=O)n(C3OC(CO)C(O)C3O)nnc12 (stereo not drawn) [Example 17, 3-(3,4-dihydroxy-5-(hydroxymethyl)tetrahydrofuran-2-yl)-5-hydroxy-4-oxo-4,5-dihydro-3H-pyrazolo [4,3-d][1,2,3]triazine-7-carbonitrile]
[4]
  inhibition in vivo at 25 mg/kg: < 40%
  in-vivo anti-tumor efficacy, statistical significance (in words): statistically significant

## N#Cc1nn(C(N)=S)c2c(=O)n(C3OC(CO)C(O)C3O)nnc12 (stereo not drawn) [Example 77, 7-cyano-3-(3,4-dihydroxy-5-(hydroxymethyl)tetrahydrofuran-2-yl)-4-oxo-3H-pyrazolo[4,3-d][1,2,3]triazine-5(4H)-carbothioamide]
[2]
  inhibition in vivo at 100 mg/kg: < 40%
  in-vivo anti-tumor efficacy, statistical significance (in words): statistically significant

## CN(C)CCC(=O)Nc1nn(C(N)=S)c2c(=O)n(C3OC(CO)C(O)C3O)nnc12 (stereo not drawn) [Example 76, N-(5-carbamothioyl-3-(3,4-dihydroxy-5-(hydroxymethyl)tetrahydrofuran-2-yl)-4-oxo-4,5-dihydro-3H-pyrazolo[4,3-d][1,2,3]triazin-7-yl)-3-(dimethylamino) propanamide]
  in-vivo anti-tumor efficacy, statistical significance (in words): statistically significant
mice, ip, 400 mg/kg
  Inhibition rate (%) S180 sarcoma: ++ (++ represent of Inhibition rate % <40)

## CCCc1nn(C(=N)N)c2c(=O)n(C3OC(COP(=O)(O)OP(=O)(O)OP(=O)(O)O)C(O)C3O)nnc12 (stereo not drawn) [Example 140, (5-(5-carbamimidoyl-4-oxo-7-propyl-4,5-dihydro-3H-pyrazolo[4,3-d][1,2,3]triazin-3-yl)-3,4-dihydroxytetrahydrofuran-2-yl)methyl tetrahydrogen triphosphate]
[1]
  inhibition in vivo at 200 mg/kg: < 20%

## CCOP(=O)(OCC)C(Nc1nn(C)c2c(=O)n(C3CSC(CO)O3)nnc12)C(=O)O (stereo not drawn) [Example 90, 2-(diethoxyphosphoryl)-2-((3-(2-(hydroxymethyl)-1,3-oxathiolan-5-yl)-5-methyl-4-oxo-4,5-dihydro-3H-pyrazolo[4,3-d][1,2,3]triazin-7-yl)amino)acetic acid]
Mus musculus, S-180, mice, iv, 30 mg/kg, read-out: Inhibition rate (%) S180 sarcoma
  inhibition in vivo at 30 mg/kg: < 20%

## N#Cc1nn(C(=N)N)c2c(=O)n(C3OC(CO)C(O)C3O)nnc12 (stereo not drawn) [Example 70, 7-cyano-3-(3,4-dihydroxy-5-(hydroxymethyl)tetrahydrofuran-2-yl)-4-oxo-3H-pyrazolo[4,3-d][1,2,3]triazine-5(4H)-carboximidamide]
[2]
  inhibition in vivo at 100 mg/kg: < 40%
  in-vivo anti-tumor efficacy, statistical significance (in words): statistically significant

## CCCc1nn(CC(N)=O)c2c(=O)n(C3OC(CO)C(O)C3O)nnc12 (stereo not drawn) [Example 49, 2-(3-(3,4-dihydroxy-5-(hydroxymethyl)tetrahydrofuran-2-yl)-4-oxo-7-propyl-3H-pyrazolo [4,3-d][1,2,3]triazin-5(4H)-yl)acetamide]
[2]
  inhibition in vivo at 100 mg/kg: < 40%
  in-vivo anti-tumor efficacy, statistical significance (in words): statistically significant

## COc1ccc(C(=O)Nc2nn(O)c3c(=O)n(C4OC(CO)C(O)C4O)nnc23)cc1 (stereo not drawn) [Example 20, N-(3-(3,4-dihydroxy-5-(hydroxymethyl)tetrahydrofuran-2-yl)-5-hydroxy-4-oxo-4,5-dihydro-3H-pyrazolo[4,3-d][1,2,3]triazin-7-yl)-4-methoxybenzamide]
[1]
  inhibition in vivo at 200 mg/kg: < 20%

## NC(=O)n1nc(N)c2nnn(C3CSC(CO)O3)c(=O)c21 (stereo not drawn) [Example 98, 7-amino-3-(2-(hydroxymethyl)-1,3-oxathiolan-5-yl)-4-oxo-3H-pyrazolo[4,3-d][1,2,3]triazine-5(4H)-carboxamide]
Mus musculus, S-180, mice, ip, 70 mg/kg, read-out: Inhibition rate (%) S180 sarcoma
  inhibition in vivo at 70 mg/kg: < 20%

## O=c1c2nnn(CO)c2nnn1C1OC(CO)C(O)C1O (stereo not drawn) [Example 152, 6-(3,4-dihydroxy-5-(hydroxymethyl)tetrahydrofuran-2-yl)-3-(hydroxymethyl)-3H-[1,2,3]triazolo[4,5-d][1,2,3]triazin-7(6H)-one]
[3]
  inhibition in vivo at 400 mg/kg: < 20%

## CCOP(=O)(OCC)C(Nc1nn(CO)c2c(=O)n(C3CCC(CO)O3)nnc12)C(=O)O (stereo not drawn) [Example 81, 2-(diethoxyphosphoryl)-2-((5-(hydroxymethyl)-3-(5-(hydroxymethyl)tetrahydrofuran-2-yl)-4-oxo-4,5-dihydro-3H-pyrazolo[4,3-d][1,2,3]triazin-7-yl)amino)acetic acid]
[2]
  inhibition in vivo at 100 mg/kg: < 40%
  in-vivo anti-tumor efficacy, statistical significance (in words): statistically significant

## CCCn1nnc2c(=O)n(C3OC(CO)C(O)C3O)nnc21 (stereo not drawn) [Example 151, 6-(3,4-dihydroxy-5-(hydroxymethyl)tetrahydrofuran-2-yl)-3-propyl-3H-[1,2,3]triazolo[4,5-d][1,2,3]triazin-7(6H)-one]
[1]
  inhibition in vivo at 200 mg/kg: < 20%

## CCCc1nn(C(=N)N)c2c(=O)n(C3OC(CO)C(O)C3O)nnc12 (stereo not drawn) [Example 68, 3-(3,4-dihydroxy-5-(hydroxymethyl)tetrahydrofuran-2-yl)-4-oxo-7-propyl-3H-pyrazolo [4,3-d][1,2,3]triazine-5(4H)-carboximidamide]
[4]
  inhibition in vivo at 20 mg/kg: < 40%
  in-vivo anti-tumor efficacy, statistical significance (in words): statistically significant

## N#Cc1nn(C(N)=O)c2c(=O)n(C3OC(CO)C(O)C3O)nnc12 (stereo not drawn) [Example 58, 7-cyano-3-(3,4-dihydroxy-5-(hydroxymethyl)tetrahydrofuran-2-yl)-4-oxo-3H-pyrazolo[4,3-d][1,2,3]triazine-5(4H)-carboxamide]
[2]
  inhibition in vivo at 100 mg/kg: < 40%
  in-vivo anti-tumor efficacy, statistical significance (in words): statistically significant

## CCOC(=O)c1nn(CC(N)=O)c2c(=O)n(C3OC(CO)C(O)C3O)nnc12 (stereo not drawn) [Example 48, ethyl 5-(2-amino-2-oxoethyl)-3-(3,4-dihydroxy-5-(hydroxymethyl)tetrahydrofuran-2-yl)-4-oxo-4,5-dihydro-3H-pyrazolo[4,3-d][1,2,3]triazine-7-carboxylate]
[4]
  inhibition in vivo at 50 mg/kg: < 40%
  in-vivo anti-tumor efficacy, statistical significance (in words): statistically significant

## CCCc1nn(CC(N)=O)c2c(=O)n(C3CSC(CO)O3)nnc12 (stereo not drawn) [Example 95, 2-(3-(2-(hydroxymethyl)-1,3-oxathiolan-5-yl)-4-oxo-7-propyl-3H-pyrazolo[4,3-d][1,2,3]triazin-5(4H)-yl)acetamide]
[4]
  inhibition in vivo at 50 mg/kg: < 40%
  in-vivo anti-tumor efficacy, statistical significance (in words): statistically significant
